2 molecules from ChEMBL document CHEMBL1250448, “Inhibitor hijacking of Akt activation” (Nat Chem Biol, 2009) can be followed below.

The target in assay [1] is RAC-alpha serine/threonine-protein kinase (Rattus norvegicus) (UniProt P47196). Nature of the assay: Induction AKT1 Ser473 hyperphosphorylation in insulin-induced rat L6 cells after 20 mins before insulin stimulation by immunoblotting. Type of assay: cell-based. Background: In western blotting, separated proteins are transferred to a membrane and probed.
RAC-alpha serine/threonine-protein kinase (Rattus norvegicus), sequence (P47196 whole entry): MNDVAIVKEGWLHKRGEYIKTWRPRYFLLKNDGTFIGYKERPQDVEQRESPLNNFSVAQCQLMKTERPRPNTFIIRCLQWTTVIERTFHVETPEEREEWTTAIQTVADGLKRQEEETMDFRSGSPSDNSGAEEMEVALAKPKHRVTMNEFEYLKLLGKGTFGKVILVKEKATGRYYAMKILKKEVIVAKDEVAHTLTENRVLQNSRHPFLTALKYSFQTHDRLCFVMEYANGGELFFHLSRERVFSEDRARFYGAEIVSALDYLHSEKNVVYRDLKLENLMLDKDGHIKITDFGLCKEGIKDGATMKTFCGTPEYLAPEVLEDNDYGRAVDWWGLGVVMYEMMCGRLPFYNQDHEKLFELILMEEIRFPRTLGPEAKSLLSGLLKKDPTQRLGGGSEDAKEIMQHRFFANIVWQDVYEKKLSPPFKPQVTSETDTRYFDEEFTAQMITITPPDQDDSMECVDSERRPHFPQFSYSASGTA
Assay [2] shares this target. In words: Induction AKT1 Thr308 hyperphosphorylation in insulin-induced rat L6 cells after 20 mins before insulin stimulation by immunoblotting. Format: cell-based.
Assay [3] concerns the target RAC-alpha serine/threonine-protein kinase (Homo sapiens, UniProt P31749). Nature of the assay: Inhibition of AKT1.
For assay [4], the system named is HEK-293T. In words: Induction of myristoylated AKT3 M229G mutant Thr308 hyperphosphorylation expressed in HEK293T cells at 2.5 uM after 30 mins by immunoblotting. Format: cell-based.
Assay [5] deals with RAC-alpha serine/threonine-protein kinase (Homo sapiens), P31749 [M227G]. Nature of the assay: Induction of myristoylated AKT1 M227G Ser473 hyperphosphorylation expressed in HEK293 cells coexpressing flag-tagged wild type AKT1 after 30 mins by immunoblotting. Format: cell-based.
RAC-alpha serine/threonine-protein kinase (Homo sapiens), P31749 [M227G], sequence (P31749 whole entry M227G): as the sequence (P47196 whole entry) above, with N2S, E46D, S50A, R112K, T117E, A137S, M227G, T389K, N410G, D415H counted along it
The test system is the same in assay [6]. In words: Induction of flag tagged AKT1 M227G Ser473 hyperphosphorylation expressed in HEK293 cells at 2.5 uM after 30 mins by immunoblotting. Format: cell-based.
Assay [7] concerns MiaPaCa2. In words: Induction of myristoylated AKT2 M225G and kinase dead D289A mutant Thr308 hyperphosphorylation expressed in MiaPaCa2 cells at 2.5 uM after 30 mins by immunoblotting. Type of assay: cell-based.
Assay [8] deals with RAC-alpha serine/threonine-protein kinase (Homo sapiens), P31749 [M227G]. Nature of the assay: Induction of myristoylated AKT1 M227G Ser473 hyperphosphorylation expressed in MiaPaCa2 cells at 2.5 uM after 30 mins by immunoblotting. Format: cell-based.
Assay [9] deals with HEK-293T. In words: Induction myristoylated AKT2 M225G mutant Ser473 hyperphosphorylation expressed in HEK293T cells at 2.5 uM after 30 mins pretreated with pan-PI3K inhibitor PIK90 for 10 mins before compound addition by immunoblotting. Type of assay: cell-based.
In assay [10] the test system is HEK-293T. Nature of the assay: Induction myristoylated AKT2 M225G mutant Ser473 hyperphosphorylation expressed in HEK293T cells at 2.5 uM after 30 mins pretreated with mTOR kinase inhibitor PP242 for 10 mins before compound addition by immunoblotting. Type of assay: cell-based.
Assay [11] concerns RAC-alpha serine/threonine-protein kinase (Homo sapiens), P31749 [M227G]. Nature of the assay: Induction of myristoylated AKT1 M227G mutant Thr308 hyperphosphorylation expressed in HEK293T cells at 2.5 uM after 30 mins pretreated with PDK1 inhibitor BX-795 for 10 mins before compound addition by immunoblotting. Conditions: HEK-293T. Type of assay: cell-based.
For assay [12] the test system is unchanged. Nature of the assay: Induction of mCherry tagged AKT1 M227G Thr308 hyperphosphorylation expressed in HEK293 cells at 2.5 uM after 30 mins by immunoblotting. Format: cell-based.
For assay [13] the test system is unchanged. Nature of the assay: Induction of mCherry tagged AKT1 M227G Ser473 hyperphosphorylation expressed in HEK293 cells at 2.5 uM after 30 mins by immunoblotting. Format: cell-based.
A further assay has as its system PC-3. Nature of the assay: Induction of myristoylated AKT2 M225G and kinase dead D289A mutant Thr308 hyperphosphorylation expressed in PC3 cells at 2.5 uM after 30 mins by immunoblotting. Type of assay: cell-based.
Assay [14] relates to MiaPaCa2. In words: Induction of myristoylated AKT2 M225G and kinase dead D289A mutant Ser473 hyperphosphorylation expressed in MiaPaCa2 cells at 2.5 uM after 30 mins by immunoblotting. Type of assay: cell-based.
Assay [15] has as its system RAC-alpha serine/threonine-protein kinase (Homo sapiens), P31749 [M227G]. In words: Induction of AKT1 M227G Thr308 hyperphosphorylation expressed in HEK293 cells at 2.5 uM after 30 mins pretreated with allosteric AKT inhibitor Akti-1,2 10 mins before compound addition by immunoblotting.
Assay [16] deals with RAC-alpha serine/threonine-protein kinase (Homo sapiens), P31749 [M227G,D292A]. Nature of the assay: Induction of myristoylated AKT1 M227G and kinase dead D292A mutant Ser473 hyperphosphorylation expressed in PC3 cells at 2.5 uM after 30 mins by immunoblotting. Type of assay: cell-based. Particulars: PC-3.
RAC-alpha serine/threonine-protein kinase (Homo sapiens), P31749 [M227G,D292A], sequence (P31749 whole entry M227G/D292A): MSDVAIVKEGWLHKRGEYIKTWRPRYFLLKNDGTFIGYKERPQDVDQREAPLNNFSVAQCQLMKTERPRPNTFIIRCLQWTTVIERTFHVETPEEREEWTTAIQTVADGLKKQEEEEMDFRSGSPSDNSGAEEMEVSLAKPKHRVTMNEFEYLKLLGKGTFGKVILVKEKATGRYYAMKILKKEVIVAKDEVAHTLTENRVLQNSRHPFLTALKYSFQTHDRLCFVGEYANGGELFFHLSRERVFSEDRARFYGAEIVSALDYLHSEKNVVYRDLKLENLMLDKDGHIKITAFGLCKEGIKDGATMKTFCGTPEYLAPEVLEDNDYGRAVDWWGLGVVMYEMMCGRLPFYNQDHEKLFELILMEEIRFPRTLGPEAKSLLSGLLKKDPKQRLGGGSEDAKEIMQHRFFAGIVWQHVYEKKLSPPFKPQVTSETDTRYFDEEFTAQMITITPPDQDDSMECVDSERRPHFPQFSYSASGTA
Assay [17] has as its system RAC-alpha serine/threonine-protein kinase (Homo sapiens), P31749 [M227G]. In words: Induction of myristoylated AKT1 M227G mutant Ser473 hyperphosphorylation expressed in HEK293T cells at 2.5 uM after 30 mins by immunoblotting. Format: cell-based. Particulars: HEK-293T.
For assay [18], the system named is MiaPaCa2. Nature of the assay: Induction of myristoylated AKT2 M225G mutant Ser473 hyperphosphorylation expressed in MiaPaCa2 cells at 2.5 uM after 30 mins by immunoblotting. Type of assay: cell-based.
Assay [19] concerns RAC-alpha serine/threonine-protein kinase (Homo sapiens), P31749 [M227G,D292A]. Nature of the assay: Induction of myristoylated AKT1 M227G and kinase dead D292A mutant Thr308 hyperphosphorylation expressed in HEK293T cells at 2.5 uM after 30 mins by immunoblotting. Format: cell-based. Conditions: HEK-293T.
The subject of assay [20] is HEK-293T. Nature of the assay: Induction of myristoylated AKT3 M229G mutant Thr308 hyperphosphorylation expressed in HEK293T cells at 2.5 uM after 30 mins pretreated with PDK1 inhibitor BX-795 for 10 mins before compound addition by immunoblotting. Format: cell-based.

pIC50: −log10 of the molar value. Activity calls are given as the source filed them. No cut-off for these calls is given here.

RAC-alpha serine/threonine-protein kinase, sequence (P31749 whole entry): as the sequence (P31749 whole entry M227G/D292A) above, with G227M, A292D counted along it

In general, pIC50 refers to the negative decadic logarithm of the IC50, by convention in mol/L. Turning to `COc1ccccc1N1CCN(c2ncnc3[nH]nc(Br)c23)CC1`, the result in [1] and in [2] was inactive. In [3], this molecule had a pIC50 of 4.66.

For `CCCc1cc(-c2cncc(OC[C@@H](N)Cc3c[nH]c4ccccc34)c2)cc2c(C)n[nH]c12`, the outcome (in the assay on HEK-293T [4]; in [5]; in [6]; with MiaPaCa2 [7]; in [8]; in assay [12]) was Active. Further, the outcome (in assay [13]; in the assay with PC-3; in the assay on MiaPaCa2 [14]; in assay [16]; in assay [17]; in the assay on MiaPaCa2 [18]) was Active. Also, in assay [19], the result was Active. The result (in the assay on HEK-293T [9]; in the assay on HEK-293T [10]; in assay [11]; in [15]; in the assay on HEK-293T [20]) was inactive.
